Measured values as given in patent publication EP4664463A1, “COMPUTER-IMPLEMENTED METHOD FOR OLFACTORY PROPERTY PREDICTION” (Givaudan SA, priority 2024, dated 2025).

Assays:
[1] = system: OR2T11; test: cell-based; type: cell-based, human
From the text: (§1) To create an expression plasmid, an OR coding sequence fused at the end of TM7 to the desired C-terminus sequence was synthesized by a DNA synthesis service provider (BioCat GmbH, Germany) and inserted into pcDNA3.1(+) (Invitrogen, MA, USA) downstream of the CMV promoter sequence (SEQ ID NO: 82) using BamHI and Notl restriction sites. All the synthetic OR nucleotide sequences described below in Examples 1-15 further contained at their N-terminus a nucleotide sequence encoding a signal peptide (mmLucy-FLAG-rho, SeQ ID NOs: 80, 81) and at the C-terminus the bgh terminator sequence (SEQ ID NO: 83). All the OR expression plasmids also contain a Kozak sequence (GCCACC) between the BamHI restriction site and the start codon of the signal peptide. These plasmids thus contain a constitutively expressed OR gene.

[2] = target: T1, OR2T11 (Homo sapiens, UniProt Q8NH01); test: cell-based; type: cell-based
T1 construct: expressed in transfected cells; host or cells: HEK293T stably expressing human RTP1S(V227I) and RTP2(L220R)
From the text: as §1
T1 sequence (Q8NH01 whole entry): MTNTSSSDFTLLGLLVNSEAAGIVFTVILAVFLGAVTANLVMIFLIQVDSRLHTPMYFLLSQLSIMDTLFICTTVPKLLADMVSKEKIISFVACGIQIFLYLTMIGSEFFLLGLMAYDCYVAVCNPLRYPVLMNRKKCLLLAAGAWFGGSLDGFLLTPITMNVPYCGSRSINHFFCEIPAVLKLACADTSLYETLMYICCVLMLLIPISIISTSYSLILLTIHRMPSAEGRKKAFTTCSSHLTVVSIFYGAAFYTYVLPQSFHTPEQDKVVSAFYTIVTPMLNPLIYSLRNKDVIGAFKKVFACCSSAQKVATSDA

[3] = target: T2, OR2T11 (Homo sapiens, UniProt Q8NH01); test: cell-based; type: cell-based; remark: listed apart in the source
T2 construct: expressed in transfected cells; host or cells: HEK293T stably expressing human RTP1S(V227I) and RTP2(L220R)
From the text: as §1
T2 sequence (Q8NH01 with tags, fused parts or gaps): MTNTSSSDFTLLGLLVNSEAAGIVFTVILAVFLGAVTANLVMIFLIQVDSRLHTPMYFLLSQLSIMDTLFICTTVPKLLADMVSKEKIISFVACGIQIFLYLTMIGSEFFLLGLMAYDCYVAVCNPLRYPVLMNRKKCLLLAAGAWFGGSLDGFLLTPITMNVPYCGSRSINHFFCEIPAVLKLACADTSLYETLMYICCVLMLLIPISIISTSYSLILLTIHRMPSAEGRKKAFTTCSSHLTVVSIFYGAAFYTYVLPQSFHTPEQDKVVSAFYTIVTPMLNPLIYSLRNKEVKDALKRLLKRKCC

[4] = target: T3, OR2T4 (Homo sapiens, UniProt Q8NH00, D328E/G331D/M330K); test: cell-based; type: cell-based; details: for ligands identified in screening of sulfur odorants: OR2T4 with SEQ ID NO: 86
T3 construct: expressed in transfected cells; host or cells: HEK293T cells stably expressing human RTP1S (V227I) and RTP2 (L220R)
T3 sequence (Q8NH00 with tags, fused parts or gaps D328E/M330K/G331D): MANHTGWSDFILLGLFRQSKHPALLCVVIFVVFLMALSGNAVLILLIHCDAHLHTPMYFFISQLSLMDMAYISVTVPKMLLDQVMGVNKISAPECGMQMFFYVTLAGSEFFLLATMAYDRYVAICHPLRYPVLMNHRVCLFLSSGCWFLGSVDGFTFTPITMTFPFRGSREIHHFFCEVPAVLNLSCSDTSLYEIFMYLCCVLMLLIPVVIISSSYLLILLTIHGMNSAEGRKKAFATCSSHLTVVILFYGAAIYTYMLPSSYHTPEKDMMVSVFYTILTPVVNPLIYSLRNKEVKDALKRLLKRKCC
From the text: as §1

[5] = system: library of all class I OR with C-terminal domain RNKQIRDALKRLLKRKCCRRR (SEQ ID NO: 741); test: Screening of the library of all class I OR with carboxylic acid ligands (luciferase); type: cell-based, human; details: full class I OR library (n = 77)
Method: All human class I OR and all key genetic variants of these OR were synthesized with a sequence coding for the identical C-terminal domain […] (SEQ ID NO: 741) in the vector pcDNA3.1(+) to generate a library of all class I OR with an improved C-terminal domain. Class I OR library members
Parallel transfection experiments were conducted with all these plasmids (n = 77, SEQ ID NO: 760, OR51F1 was excluded due to poor plasmid yield) and cells expressing the different OR were stimulated with one given ligand at a time. In total 10 different carboxylic acids ligands were tested on the full library of class I receptors.

[6] = target: T4, OR2T4 (Homo sapiens, UniProt Q8NH00); test: cell-based; type: cell-based
T4 construct: expressed in transfected cells; host or cells: HEK293T cells stably expressing human RTP1S (V227I) and RTP2 (L220R)
T4 sequence (Q8NH00 35-348): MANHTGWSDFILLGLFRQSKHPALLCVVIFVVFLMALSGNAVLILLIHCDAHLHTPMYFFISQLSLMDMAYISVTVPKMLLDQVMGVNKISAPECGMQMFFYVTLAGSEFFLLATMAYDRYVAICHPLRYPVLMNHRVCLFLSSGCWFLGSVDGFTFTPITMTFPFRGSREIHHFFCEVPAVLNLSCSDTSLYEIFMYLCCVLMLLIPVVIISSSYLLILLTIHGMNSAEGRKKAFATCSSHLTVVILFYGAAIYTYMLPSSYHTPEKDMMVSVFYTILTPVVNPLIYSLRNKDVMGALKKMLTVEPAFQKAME
From the text: as §1

[7] = system: OR2T4; test: cell-based; type: cell-based, human
From the text: as §1

[8] = target: T5, OR5A2 (Homo sapiens, UniProt Q8NGI9); test: Luciferase dose-response, wild-type vs changed C-terminus (SEQ ID NO: 86); type: cell-based; details: OR5A2 with SEQ ID NO: 86
T5 construct: expressed in transfected cells; host or cells: HEK293T cells with stably integrated human RTP1S (V227I) and RTP2 (L220R)
T5 sequence (Q8NGI9 with tags, fused parts or gaps): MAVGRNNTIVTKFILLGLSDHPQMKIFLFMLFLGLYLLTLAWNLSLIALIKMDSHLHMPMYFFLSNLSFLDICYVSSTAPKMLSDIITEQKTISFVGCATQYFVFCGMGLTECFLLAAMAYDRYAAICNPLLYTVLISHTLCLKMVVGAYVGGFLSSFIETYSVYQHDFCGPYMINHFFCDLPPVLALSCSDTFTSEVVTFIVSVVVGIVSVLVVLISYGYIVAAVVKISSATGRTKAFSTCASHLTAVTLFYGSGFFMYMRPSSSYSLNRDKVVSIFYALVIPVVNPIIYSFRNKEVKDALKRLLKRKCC

[9] = target: T6, OR5A2 (Homo sapiens, UniProt Q8NGI9); test: as above; type: cell-based; details: wild-type OR5A2
T6 construct: expressed in transfected cells; host or cells: HEK293T cells with stably integrated human RTP1S (V227I) and RTP2 (L220R)
T6 sequence (Q8NGI9 1-324): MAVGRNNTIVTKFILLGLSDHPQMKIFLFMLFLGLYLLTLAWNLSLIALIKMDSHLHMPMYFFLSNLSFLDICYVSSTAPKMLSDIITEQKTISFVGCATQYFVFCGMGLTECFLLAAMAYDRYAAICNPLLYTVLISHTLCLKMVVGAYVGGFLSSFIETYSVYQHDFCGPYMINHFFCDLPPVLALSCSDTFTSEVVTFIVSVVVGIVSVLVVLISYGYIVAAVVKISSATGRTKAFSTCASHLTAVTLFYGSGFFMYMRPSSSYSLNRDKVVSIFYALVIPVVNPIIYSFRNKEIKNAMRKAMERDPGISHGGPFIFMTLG

[10] = target: T7, OR5AN1 (Homo sapiens, UniProt Q8NGI8); test: Chimeric OR5AN1 with C-terminal sequence of OR1N2 (luciferase); type: cell-based
T7 construct: expressed in transfected cells; host or cells: HEK293T stably expressing human RTP1S(V227I) and RTP2(L220R)
T7 sequence (Q8NGI8 with tags, fused parts or gaps limits assumed): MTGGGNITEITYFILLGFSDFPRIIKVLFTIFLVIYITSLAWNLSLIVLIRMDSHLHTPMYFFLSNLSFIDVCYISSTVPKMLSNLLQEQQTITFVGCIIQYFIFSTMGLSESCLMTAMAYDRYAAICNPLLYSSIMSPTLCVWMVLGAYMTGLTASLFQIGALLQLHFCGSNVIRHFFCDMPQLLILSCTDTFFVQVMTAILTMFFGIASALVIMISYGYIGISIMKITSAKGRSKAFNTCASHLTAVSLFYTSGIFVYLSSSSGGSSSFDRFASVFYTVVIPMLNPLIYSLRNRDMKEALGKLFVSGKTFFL
From the text: Similarly, the C-terminal sequence of OR5AN1 was replaced with the C-terminal sequence of the ambrettolide receptor OR1 N2.

[11] = system: library of all class II OR with modified C-terminal domain RNKEVKKAIKRLFKRKCCRRR (SEQ ID NO: 221); test: Screening of the library of all class II OR with single odorants (luciferase); type: cell-based, human; details: full class II OR library (n = 408); maximal non-cytotoxic concentration
Method: All human class II OR and all key genetic variants of these OR were synthesized with a sequence coding for an identical modified C-terminal domain […] (SEQ ID NO: 221) in the vector pcDNA3.1(+) to generate a library of all class II OR with an improved C-terminal domain. Class II OR library members with modified C-terminal domains
Parallel transfection experiments were conducted with all these plasmids (n = 408) and cells expressing the different OR were stimulated with one given ligand at a time, tested at the maximal, clearly non-cytotoxic concentration. In total 26 different ligands were tested on the full library of class II receptors.

[12] = system: OR5A2; test: Dose-dependent luciferase induction by muscone of OR5A2 C-terminal variants; type: cell-based, human; details: modified OR5A2
From the text: as §1
Table 11. Dose-dependent induction OR5A2 with two different variants of the C-terminal sequence motif (Shown is fold-induction of luciferase)

C=CCSSCC=C [Diallyl disulfide]
Comments on efficacy [1]: No induction wild-type
Fold-improvement potency [1]: >>40
Fold-improvement threshold [1]: >100
EC50 ([2]; Potency EC50, wild-type): > 200 µM
Detection threshold; concentration for 2-fold induction ([2]; wild-type): >200 µM
EC50 ([3]; Potency EC50, changed C-term SEQ ID NO: 86): 6.51 µM
Detection threshold; concentration for 2-fold induction ([3]; changed C-term. SEQ ID NO: 86): 2.03 µM
ligands identified in screening of sulfur odorants [4]: good ligands

CCC=C(C)C(=O)O [2-Methyl-2-pentenoic acid]
Activated OR and OR variants [5]: No activation observed

SC1CCCC1 [Cyclopentanethiol]
Detection threshold; concentration for 2-fold induction [4]: 3.89 µM
ligands identified in screening of sulfur odorants [4]: good ligands
EC50 ([4]; changed C-term SEQ ID NO: 86, read-out: Potency EC50): 14.6 µM
Detection threshold; concentration for 2-fold induction [6]: n.i. (>> 316) µM
EC50 ([6]; wild-type, read-out: Potency EC50): > 316 µM
Comments on efficacy [7]: No induction wild-type
Fold-improvement potency [7]: >>2
Fold-improvement threshold [7]: >>100

C[C@@H]1CCCCCCCCCCCCC(=O)C1 [Muscone]
concentration at which activation occurs [8]: 1 µM
activation of the wild-type receptor [9]: No activation
functional response [10]: not showing any functional response
Activated OR and OR variants [11]: OR5AN1, OR5A2
concentration at which induction starts [12]: 0.03 µM

CC(C)CC(=O)O [3-Methylbutanoic acid]
Activated OR and OR variants [5]: No activation observed
